From patent US20110092558A1, “NOVEL MICROBIOCIDES” (SYNGENTA CROP PROTECTION, INC., priority 2008, published 2011)

Tests used:
Mycosphaerella arachidis = experiment: Action against Mycosphaerella arachidis (early leaf spot of groundnut) - fungal growth assay; format: cell-based; conditions: 0.02% active ingredient, PDB nutrient broth, 24° C., measured photometrically after 6-7 days
Method: (§1) Action Against Mycosphaerella arachidis (Early Leaf Spot of Groundnut Cercospora Arachidicola [Anamorph])—Fungal Growth Assay Conidia of the fungus from cryogenic storage are directly mixed into nutrient broth (PDB potato dextrose broth). After placing a (DMSO) solution of the test compounds (0.02% active ingredient) into a microtiter plate (96-well format) the nutrient broth containing the fungal spores is added. The test plates are incubated at 24° C. and the inhibition of growth is measured photometrically after 6-7 days. The activity of a compound is expressed as fungal growth inhibition. Compounds 1.001, 1.004, 1.052, 1.069, 1.134, 1.171, 1.182 and 1.197 show good activity in this test (at least 50% inhibition).

Monographella nivalis = experiment: Action against Monographella nivalis (snow mould) - fungal growth assay; format: cell-based; conditions: 0.02% active ingredient, PDB nutrient broth, 24° C., measured photometrically after 72 hrs
Method: as §1, with “Monographella nivalis (Anamorph: Fusarium nivale, Microdochium nivale; Snow Mould)—Fungal” for “Mycosphaerella arachidis (Early Leaf Spot of Groundnut Cercospora Arachidicola [Anamorph])—Fungal”, “DMSO-solution” for “(DMSO) solution”, “72 hrs.” for “6-7 days. The activity of a compound is expressed as fungal growth inhibition.”

[1] = test system: Erysiphe graminis f.sp. Tritici; experiment: Action against Erysiphe graminis f.sp. tritici (wheat powdery mildew), wheat leaf segments, preventive; format: in vivo; conditions: Blumeria graminis, foliar, 168 h; wheat leaf segments sprayed with 0.02% active ingredient; assessed 7 days after inoculation; read-out: preventive fungicidal activity (inhibition)
Method: (§2) Action Against Erysiphe graminis f.sp. Tritici (Wheat Powdery Mildew) Wheat leaf segments are placed on agar in multiwell plates (24-well format) and sprayed with test solutions (0.02% active ingredient). After drying, the leaf disks are inoculated with a spore suspension of the fungus. After appropriate incubation the activity of a compound is assessed 7 days after inoculation as preventive fungicidal activity. Compounds 1.001, 1.004, 1.052, 1.069, 1.134, and 1.182 show good activity in this test (at least 50% inhibition).

Puccinia recondita = experiment: Curative action against Puccinia recondita (brown rust) on wheat leaf segments; format: in vivo; conditions: foliar, wheat leaf segments sprayed with 0.02% active ingredient one day after inoculation, assessed 8 days after inoculation, read-out: curative fungicidal activity (inhibition)
Method: Curative Action Against Puccinia recondita (Brown Rust) on Wheat Wheat leaf segments are placed on agar in multiwell plates (24-well format) and inoculated with a spore suspension of the fungus. One day after inoculation the leaf segments are sprayed with test solutions (0.02% active ingredient). After appropriate incubation the activity of a compound is assessed 8 days after inoculation as curative fungicidal activity. Compounds 1.004 and 1.052 show good activity in this test (at least 50% inhibition).

Septoria tritici = experiment: Action against Septoria tritici - fungal growth assay; format: cell-based; conditions: Zymoseptoria tritici; 0.02% active ingredient; PDB nutrient broth, 24° C.; determined photometrically after 72 hrs
Method: as §1, with “Septoria tritici—Fungal” for “Mycosphaerella arachidis (Early Leaf Spot of Groundnut Cercospora Arachidicola [Anamorph])—Fungal”, “determined” for “measured”, “72 hrs.” for “6-7 days.”

Leptosphaeria nodorum = experiment: Action against Leptosphaeria nodorum (Septoria nodorum; glume blotch) on wheat leaf segments, preventive; format: in vivo; conditions: Parastagonospora nodorum, foliar, 96 h; wheat leaf segments sprayed with 0.02% active ingredient; assessed 4 days after inoculation; read-out: preventive fungicidal activity (inhibition)
Method: as §2, with “Leptosphaeria nodorum (Septoria nodorum; Glume Blotch) on Wheat” for “Erysiphe graminis f.sp. Tritici (Wheat Powdery Mildew)”, “4” for “7”, “1.004,” for “1.004, 1.052,”

Pyrenophora teres = experiment: Action against Pyrenophora teres (net blotch) on barley leaf segments, preventive; format: in vivo; conditions: foliar, 96 h, barley leaf segments sprayed with 0.02% active ingredient, assessed 4 days after inoculation, read-out: preventive fungicidal activity (inhibition)
Method: as §2, with “Pyrenophora teres (Net Blotch) on Barley Barley” for “Erysiphe graminis f.sp. Tritici (Wheat Powdery Mildew) Wheat”, “4” for “7”, “1.134, 1.171, 1.182” for “1.134,”, “1.197” for “1.182”

Botrytis cinerea = experiment: Action against Botrytis cinerea - fungal growth assay; format: cell-based; conditions: 0.02% active ingredient, PDB nutrient broth, 24° C., measured photometrically after 3-4 days
Method: as §1, with “Botrytis cinerea—Fungal” for “Mycosphaerella arachidis (Early Leaf Spot of Groundnut Cercospora Arachidicola [Anamorph])—Fungal”, “3-4” for “6-7”, “1.052,” for “1.052, 1.069,”, “1.134,” for “1.134, 1.171,”

Measured: inhibition at 0.02 % strength

CC(CCc1c(Cl)cc(Cl)cc1Cl)NC(=O)c1cn(C)nc1C(F)F (stereo not shown) [Compound 1.004, 3-difluoromethyl-1-methyl-1H-pyrazole-4-carboxylic acid [1-methyl-3-(2,4,6-trichloro-phenyl)-propyl]-amide]
≥ 50%: all assays above

CC(CCCc1c(Cl)cc(Cl)cc1Cl)NC(=O)c1cn(C)nc1C(F)F (stereo not shown) [Compound 1.069, 3-difluoromethyl-1-methyl-1H-pyrazole-4-carboxylic acid [1-methyl-4-(2,4,6-trichloro-phenyl)-butyl]-amide]
not listed: Puccinia recondita | Botrytis cinerea
≥ 50%: all other assays above

CC(COCc1c(Cl)cccc1Cl)NC(=O)c1cn(C)nc1C(F)F (stereo not shown) [Compound 1.197, 3-difluoromethyl-1-methyl-1H-pyrazole-4-carboxylic acid [2-(2,6-dichloro-benzyloxy)-1-methyl-ethyl]-amide]
≥ 50%: Mycosphaerella arachidis | Monographella nivalis | Septoria tritici | Pyrenophora teres | Botrytis cinerea
